# Assay results taken from patent publication US20240208969A1, “SUBSTITUTED FUSED BICYCLIC COMPOUNDS AS PARP INHIBITORS AND THE USE THEREOF” (IMPACT THERAPEUTICS (SHANGHAI), INC., priority 2021, published 2024).
# Test system: MDA-MB-436 cells
# Assay: Inhibition of proliferation of human breast cancer MDA-MB-436 cell line (CCK-8, 7 days)
# Format: cell-based
# Conditions: Homo sapiens, 168 h, proliferation of MDA-MB-436, 7 days
# Protocol: The cells were cultured in complete medium (DMEM medium +10% FBS+Insulin+glutathione). When the confluence reached about 80%, cells were digested and gently dispensed from the bottom of the dish with a 1 mL pipette. Cell suspension was collected and centrifuged at 500 rpm for 3 min. The supernatant was discarded, and the cell pellet were re-suspended in complete medium. The cells were seeded into a culture dish at an appropriate proportion, and then cultured in a 5% CO2 incubator at 37° C. The assay was carried out when the cells were in optimum condition and the confluence was reached 80%. Cells were harvested in the logarithmic growth phase by using 1 mL pipette gently and then centrifugated at 500 rpm for 3 min. The cells were resuspended by using refresh medium after removing the supernatant and then the cells were counted. The cells were seeded at 3000/well in a 96 well plate and incubated at 37° C. 5% CO2 incubator overnight. In the second day, cells were treated with compound at 8 serially diluted dose with 1000×final concentration in 100% DMSO. The compound was prepared as below: 1000×dilution tested compound solution to 40×test compound solution by adding 5μL, 1000×compound solution to 120 μL Medium (25-fold dilution). The solution was mixed by oscillation. DMSO was used as the control.
# The medium was removed from the wells in the plate after the plate was taken out from incubator. Then, fresh medium of 195 μL/per well was added to the 96 well plate. 5μL/per well of 40×test compound solution was added into the 96 well plate. Finally, the plate was incubated for 7 days in a 37° C. 5% CO2 incubator. The medium containing compound was changed once on the fourth day. After 7 days, 20 μL of CCK-8 was added to each well and shake gently, then was cultured for 4 hours. The plate was shaken for 5 min after incubation, the absorbance values of 450 nm. and 650nm wavelengths were recorded respectively (OD=absorbance value of 450 nm−absorbance value of 650 nm) by using the multifunction readout instrument.
# Data were analyzed by software GraphPad Prism 6.0. The inhibitory activity of compounds on cell proliferation was plotted using cell survival rate against the compound concentration as coordinates. Cell survival rate %=(ODcompound−ODbackground)/(ODDMSO−ODbackground)×100. The IC50 value was fitted by the s-shaped dose response curve equation: Y=100/(1+10^(log C−log IC50)), and C was the compound concentration.
# Table 2 summarizes the inhibitory effect data (IC50) of the compounds on the proliferation of human breast cancer cells MDA-MB-436, wherein ++++ indicates 1<IC50≤10 nM; +++ indicates 10 nM<IC50≤100 nM; ++ indicates 100 nM<IC50≤1 μM; + indicates IC50>1 μM.
row,Structure (SMILES),IC50 [nM]
1,"CNC(=O)c1ccc(N2CCN(Cc3cnc4c(=O)n(C)c(=O)[nH]c4c3)CC2)cn1 [Example 2, 5-(4-((3-methyl-2,4-dioxo-1,2,3,4-tetrahydropyrido[3,2-d]pyrimidin-7-yl)methyl)piperazin-1-yl)-N-methylpicolinamide]",> 1000
2,"CCn1c(=O)[nH]c2cc(CN3CCN(c4ccc(C(=O)NC)nc4)CC3)ncc2c1=O [Example 5, 5-(4-((3-ethyl-2,4-dioxo-1,2,3,4-tetrahydropyrido[4,3-d]pyrimidin-7-yl)methyl)piperazin-1-yl)-N-methylpicolinamide]",> 1000
3,"CCn1c(=O)[nH]c2cc(CN3CCN(c4ccc(C(=O)NC)nc4F)CC3)cnc2c1=O [Example 9, 5-(4-((3-ethyl-2,4-dioxo-1,2,3,4-tetrahydropyrido[3,2-d]pyrimidin-7-yl)methyl)piperazin-1-yl)-6-fluoro-N-methylpicolinamide]",100 to 1000
4,"CNC(=O)c1ccc(N2CCN(Cc3ccc4c(=O)n(CCF)c(=O)[nH]c4c3)CC2)c(C)n1 [Example 20, 5-(4-((3-(2-fluoroethyl)-2,4-dioxo-1,2,3,4-tetrahydroquinazolin-7-yl)methyl)piperazin-1-yl)-N,6-dimethylpicolinamide]",100 to 1000
5,"CCn1c(=O)[nH]c2cc(CN3CCN(c4ccc(C(=O)NC)nc4C(F)(F)F)CC3)ccc2c1=O [Example 23, 5-(4-((3-ethyl-2,4-dioxo-1,2,3,4-tetrahydroquinazolin-7-yl)methyl)piperazin-1-yl)-N-methyl-6-(trifluoromethyl)picolinamide]",100 to 1000
6,"CCn1c(=O)[nH]c2cc(CN3CCN(c4ccc(C(=O)NC)nc4C(F)F)CC3)ccc2c1=O [Example 35, 5-(4-((3-ethyl-2,4-dioxo-1,2,3,4-tetrahydroquinazolin-7-yl)methyl)piperazin-1-yl)-6-(difluoromethyl)-N-methylpicolinamide]",100 to 1000
7,"CCn1c(=O)[nH]c2cc(CN3CCN(c4ccc5c(c4)CCN(C)C5=O)CC3)ccc2c1=O [Example 36, 3-ethyl-7-((4-(2-methyl-1-oxo-1,2,3,4-tetrahydroisoquinolin-6-yl)piperazin-1-yl)methyl)quinazoline-2,4(1H,3H)-dione]",> 1000
8,"CCn1c(=O)[nH]c2cc(CN3CCN(c4ccc5c(c4)CCNC5=O)CC3)ccc2c1=O [Example 37, 3-ethyl-7-((4-(1-oxo-1,2,3,4-tetrahydroisoquinolin-6-yl)piperazin-1-yl)methyl)quinazoline-2,4(1H,3H)-dione]",> 1000
9,"CCn1c(=O)[nH]c2cc(CN3CCN(c4ccn5c(=O)ccnc5c4)CC3)ccc2c1=O [Example 38, 3-ethyl-7-((4-(4-oxo-4H-pyrido[1,2-a]pyrimidin-8-yl)piperazin-1-yl)methyl)quinazoline-2,4(1H,3H)-dione]",> 1000
10,"CCn1c(=O)[nH]c2cc(CN3CCN(c4ccc(C(=O)N(C)C)nc4F)CC3)ccc2c1=O [Example 39, 5-(4-((3-ethyl-2,4-dioxo-1,2,3,4-tetrahydroquinazolin-7-yl)methyl)piperazin-1-yl)-6-fluoro-N,N-dimethylpicolinamide]",> 1000
11,"CCn1c(=O)[nH]c2cc(-c3cc(F)cc(C(=O)Nc4ccc(C(=O)NC)nc4)c3)ccc2c1=O [Example 43, 5-(3-(3-ethyl-2,4-dioxo-1,2,3,4-tetrahydroquinazolin-7-yl)-5-fluorobenzamido)-N-methylpicolinamide]",> 1000
12,"CCn1c(=O)[nH]c2cc(-c3cccc(C(=O)Nc4ccc(C(=O)NC)nc4)c3)cnc2c1=O [Example 45, 5-(3-(3-ethyl-2,4-dioxo-1,2,3,4-tetrahydropyrido[3,2-d]pyrimidin-7-yl)benzamido)-1-methylpicolinamide]",> 1000
13,"CCn1c(=O)[nH]c2cc(-c3cccc(C(=O)Nc4ccc(C(=O)NC)nc4)n3)ccc2c1=O [Example 46, 6-(3-ethyl-2,4-dioxo-1,2,3,4-tetrahydroquinazolin-7-yl) -N-(6-(methylcarbamoyl)pyridin-3-yl)picolinamide]",100 to 1000
14,"CCn1c(=O)[nH]c2cc(CN3CCN(c4cnc(C(=O)NC)cc4C)CC3)ccc2c1=O [Example 50, 5-(4-((3-ethyl-2,4-dioxo-1,2,3,4-tetrahydroquinazolin-7-yl)methyl)piperazin-1-yl)-N,4-dimethylpicolinamide]",> 1000
15,"CCn1c(=O)[nH]c2cc(CN3CCN(c4cnc(C(=O)NC)c(C)c4)CC3)ccc2c1=O [Example 51, 5-(4-((3-ethyl-2,4-dioxo-1,2,3,4-tetrahydroquinazolin-7-yl)methyl)piperazin-1-yl)-N,3-dimethylpicolinamide]",> 1000
16,"CCn1c(=O)[nH]c2cc(CN3CCN(c4ccc(C(=O)NC)nc4C)CC3)c(C)cc2c1=O [Example 52, 5-(4-((3-ethyl-6-methyl-2,4-dioxo-1,2,3,4-tetrahydroquinazolin-7-yl)methyl)piperazin-1-yl)-N,6-dimethylpicolinamide]",> 1000
17,"CCn1c(=O)[nH]c2cc(CN3CCN(c4ccc(C(=O)NC)nc4C)CC3)c(Cl)cc2c1=O [Example 53, 5-(4-((6-chloro-3-ethyl-2,4-dioxo-1,2,3,4-tetrahydroquinazolin-7-yl)methyl)piperazin-1-yl)-N,6-dimethylpicolinamide]",> 1000
18,"CCn1c(=O)[nH]c2cc(CN3CCN(c4ccc(C(=O)NC)nc4C)CC3)cc(F)c2c1=O [Example 56, 5-(4-((3-ethyl-5-fluoro-2,4-dioxo-1,2,3,4-tetrahydroquinazolin-7-yl)methyl)piperazin-1-yl)-N,6-dimethylpicolinamide]",10 to 100
19,"CCn1c(=O)[nH]c2cc(CN3CCN(c4cnc(C(=O)NC)cn4)CC3)ccc2c1=O [Example 57, 5-(4-((3-ethyl-2,4-dioxo-1,2,3,4-tetrahydroquinazolin-7-yl)methyl)piperazin-1-yl)-N-methylpyrazine-2-carboxamide]",> 1000

# Second part, the compound after the results:
row,IC50 [nM],Structure (SMILES)
1,> 1000,"CCn1c(=O)[nH]c2cc(CN3CCC(c4ccc(C(=O)NC)nc4C)CC3)ccc2c1=O [Example 58, 5-(1-((3-ethyl-2,4-dioxo-1,2,3,4-tetrahydroquinazolin-7-yl)methyl)piperidin-4-yl)-N,6-dimethylpicolinamide]"
2,10 to 100,"CCn1c(=O)[nH]c2cc(CN3CCN(c4ccc(C(=O)NC)nc4C)CC3)cc(Cl)c2c1=O [Example 59, 5-(4-((5-chloro-3-ethyl-2,4-dioxo-1,2,3,4-tetrahydroquinazolin-7-yl)methyl)piperazin-1-yl)-N,6-dimethylpicolinamide]"
3,100 to 1000,"CCn1c(=O)[nH]c2cc(CN3CCN(c4ccc(C(=O)NC)nc4Cl)CC3)c(Cl)cc2c1=O [Example 65, 6-chloro-5-(4-((6-chloro-3-ethyl-2,4-dioxo-1,2,3,4-tetrahydroquinazolin-7-yl)methyl)piperazin-1-yl)-N-methylpicolinamide]"
4,100 to 1000,"CCn1c(=O)[nH]c2cc(CN3CCN(c4ccc(C(=O)NC)nc4Cl)CC3)c(C)cc2c1=O [Example 66, 6-chloro-5-(4-((3-ethyl-6-methyl-2,4-dioxo-1,2,3,4-tetrahydroquinazolin-7-yl)methyl)piperazin-1-yl)-N-methylpicolinamide]"
5,> 1000,"CCn1c(=O)[nH]c2cc(CN3CCN(c4ccc(C(=O)NC)cc4)CC3)ccc2c1=O [Example 68, 4-(4-((3-ethyl-2,4-dioxo-1,2,3,4-tetrahydroquinazolin-7-yl)methyl)piperazin-1-yl)-N-methylbenzamide]"
6,> 1000,"CCn1c(=O)[nH]c2cc(CN3CCN(c4ccc(C(=O)NC)cc4F)CC3)ccc2c1=O [Example 69, 4-(4-((3-ethyl-2,4-dioxo-1,2,3,4-tetrahydroquinazolin-7-yl)methyl)piperazin-1-yl)-3-fluoro-N-methyibenzamide]"
7,> 1000,"CCn1c(=O)[nH]c2cc(CN3CCN(c4ccc(C(=O)NC)cc4Cl)CC3)ccc2c1=O [Example 70, 3-chloro-4-(4-((3-ethyl-2,4-dioxo-1,2,3,4-tetrahydroquinazolin-7-yl)methyl)piperazin-1-yl)-N-methylbenzamide]"
8,> 1000,"CCn1c(=O)[nH]c2cc(CN3CCN(c4ccc(C(=O)NC)cc4C)CC3)ccc2c1=O [Example 71, 4-(4-((3-ethyl-2,4-dioxo-1,2,3,4-tetrahydroquinazolin-7-yl)methyl)piperazin- -yl)-N,3-dimethylbenzamide]"
9,> 1000,"CCn1c(=O)[nH]c2cc(CN3CCN(c4c(C)cc(C(=O)NC)nc4C)CC3)ccc2c1=O [Example 72, 5-(4-((3-ethyl-2,4-dioxo-1,2,3,4-tetrahydroquinazolin-7-yl)methyl)piperazin-1-yl)-N,4,6-trimethylpicolinamide]"
